Data published in US7446195B2, “High affinity thiophene-based and furan-based kinase ligands” (Schering Corporation, priority 2005, dated 2008).

Molecular target: CDK-2 (Homo sapiens, UniProt P24941)
Assay: CDK-2 inhibition (Table 1; fluorescence polarization displacement assay)
Format: binding
Details: inhibitory effectiveness toward CDK-2
Procedure: The affinity of lead inhibitors binding to CDK-2 and CDK-2/cyclin A were determined by measuring a Ki value using a fluorescence polarization displacement assay. The deacetylated form of compound BMS-250595 was reacted with Alexa Fluor 647 to generate a compound (BMS-Alexa Fluor647) that bound to both proteins and provided a signal for fluorescence polarization displacement. Binding assays were performed in a 384 well Costar NBS coated plate. A total volume of […] contained concentrations of CDK-2 or CDK-2/cyclin A at […], respectively. The concentration of BMS-Alexa Fluor647 was 50 nM. Serial dilutions of compounds were added to 12 wells. The final buffer concentration was 10 mM Hepes, pH 7.5, 150 mM NaCl, and 1 mM DTT. Samples were incubated at room temperature for 15 minutes and then read in an Analyst HT instrument using an excitation and emission wavelength of 580 and 680 nm, respectively. The […] curve fitting tool described by Zhang et al., 2004 (Zhang R., Mayhood T., Lipari P., Wang Y., Durkin D., Syto R., Gesell J., McNemar C., and Windsor W., Analytical Biochemistry 331 (2004) 138-146)

| IC50 [µM] | SMILES |
| --- | --- |
| 1 to 40 | COc1ccc(C(=O)Nc2ccc(C(=O)N3CCC(Oc4cnccn4)CC3)s2)c(C)c1 [Compound 76] |
| 1 to 40 | O=C(Nc1ccc(-n2cncn2)c(F)c1)c1ccc(C(=O)Nc2ccccc2-c2ccccc2)s1 [Compound 77] |
| 1 to 40 | O=C(NCCc1cccnc1)c1ccc(C(=O)Nc2ccc(-n3cncn3)cc2)s1 [Compound 78] |
| 1 to 40 | COc1ccc(NC(=O)c2ccc(C(=O)Nc3ccc(-n4cncn4)cc3)s2)c(C(=O)O)c1 [Compound 79] |
| ≥ 40 | O=C(Nc1ccc(-n2cncn2)cc1)c1ccc(C(=O)NC2CC2)s1 [Compound 80] |
| ≥ 40 | CC(C)NC(=O)c1ccc(C(=O)Nc2ccc(-n3cncn3)cc2)s1 [Compound 81] |
| ≥ 40 | O=C(Nc1ccc(-n2cncn2)cc1)c1ccc(C(=O)NC2CCC2)s1 [Compound 82] |
| ≥ 40 | CC(C)CNC(=O)c1ccc(C(=O)Nc2ccc(-n3cncn3)cc2)s1 [Compound 83] |
| ≥ 40 | O=C(Nc1ccc(-n2cncn2)cc1)c1ccc(C(=O)N2CCCCC2)s1 [Compound 84] |
| ≥ 40 | O=C(Nc1ccc(-n2cncn2)cc1)c1ccc(C(=O)N2CCOCC2)s1 [Compound 85] |
| ≥ 40 | CCCCN(C)C(=O)c1ccc(C(=O)Nc2ccc(-n3cncn3)cc2)s1 [Compound 86] |
| ≥ 40 | CN(C)CCNC(=O)c1ccc(C(=O)Nc2ccc(-n3cncn3)cc2)s1 [Compound 87] |
| ≥ 40 | COC[C@H](C)NC(=O)c1ccc(C(=O)Nc2ccc(-n3cncn3)cc2)s1 [Compound 88] |
| ≥ 40 | O=C(Nc1ccccc1)c1ccc(C(=O)Nc2ccc(-n3cncn3)cc2)s1 [Compound 89] |
| ≥ 40 | O=C(Nc1ccc(-n2cncn2)cc1)c1ccc(C(=O)Nc2ccccn2)s1 [Compound 90] |
| ≥ 40 | O=C(Nc1ccc(-n2cncn2)cc1)c1ccc(C(=O)NC2CCCCC2)s1 [Compound 91] |
| ≥ 40 | O=C(Nc1ccc(-n2cncn2)cc1)c1ccc(C(=O)Nc2nccs2)s1 [Compound 92] |
| ≥ 40 | O=C(NC[C@H]1CCCO1)c1ccc(C(=O)Nc2ccc(-n3cncn3)cc2)s1 [Compound 93] |
| ≥ 40 | O=C(NC[C@@H]1CCCO1)c1ccc(C(=O)Nc2ccc(-n3cncn3)cc2)s1 [Compound 94] |
| ≥ 40 | CC(CN(C)C)NC(=O)c1ccc(C(=O)Nc2ccc(-n3cncn3)cc2)s1 (stereo not shown) [Compound 95] |
| ≥ 40 | CN(C(=O)c1ccc(C(=O)Nc2ccc(-n3cncn3)cc2)s1)c1ccccc1 [Compound 96] |
| ≥ 40 | O=C(NCc1ccccn1)c1ccc(C(=O)Nc2ccc(-n3cncn3)cc2)s1 [Compound 97] |
| ≥ 40 | O=C(NCc1ccncc1)c1ccc(C(=O)Nc2ccc(-n3cncn3)cc2)s1 [Compound 98] |
| ≥ 40 | O=C(NCc1cccnc1)c1ccc(C(=O)Nc2ccc(-n3cncn3)cc2)s1 [Compound 99] |
| ≥ 40 | Cc1ccnc(NC(=O)c2ccc(C(=O)Nc3ccc(-n4cncn4)cc3)s2)c1 [Compound 100] |
| ≥ 40 | Cc1cccc(NC(=O)c2ccc(C(=O)Nc3ccc(-n4cncn4)cc3)s2)n1 [Compound 101] |

| IC50 [µM] | SMILES |
| --- | --- |
| ≥ 40 | CN(Cc1ccco1)C(=O)c1ccc(C(=O)Nc2ccc(-n3cncn3)cc2)s1 [Compound 102] |
| ≥ 40 | O=C(NCCc1c[nH]cn1)c1ccc(C(=O)Nc2ccc(-n3cncn3)cc2)s1 [Compound 103] |
| ≥ 40 | O=C(Nc1ccc(-n2cncn2)cc1)c1ccc(C(=O)N[C@@H]2CC3CCC2C3)s1 (stereo partly shown) [Compound 104] |
| ≥ 40 | Cc1cc(CNC(=O)c2ccc(C(=O)Nc3ccc(-n4cncn4)cc3)s2)no1 [Compound 105] |
| ≥ 40 | O=C(NCC1CCCCC1)c1ccc(C(=O)Nc2ccc(-n3cncn3)cc2)s1 [Compound 106] |
| ≥ 40 | CN(Cc1ccccc1)C(=O)c1ccc(C(=O)Nc2ccc(-n3cncn3)cc2)s1 [Compound 107] |
| ≥ 40 | O=C(NCCc1ccccc1)c1ccc(C(=O)Nc2ccc(-n3cncn3)cc2)s1 [Compound 108] |
| ≥ 40 | Cc1cc(C)nc(NC(=O)c2ccc(C(=O)Nc3ccc(-n4cncn4)cc3)s2)c1 [Compound 109] |
| ≥ 40 | COc1ccccc1NC(=O)c1ccc(C(=O)Nc2ccc(-n3cncn3)cc2)s1 [Compound 110] |
| ≥ 40 | Cc1cnc(CNC(=O)c2ccc(C(=O)Nc3ccc(-n4cncn4)cc3)s2)cn1 [Compound 111] |
| ≥ 40 | C[C@@H](NC(=O)c1ccc(C(=O)Nc2ccc(-n3cncn3)cc2)s1)C1CCCCC1 [Compound 112] |
| ≥ 40 | O=C(Nc1ccc(-n2cncn2)cc1)c1ccc(C(=O)N[C@@H]2CCc3ccccc32)s1 [Compound 113] |
| ≥ 40 | O=C(Nc1ccc(-n2cncn2)cc1)c1ccc(C(=O)NC2Cc3ccccc3C2)s1 [Compound 114] |
| ≥ 40 | O=C(NCc1ccc2c(c1)CCO2)c1ccc(C(=O)Nc2ccc(-n3cncn3)cc2)s1 [Compound 115] |
| ≥ 40 | O=C(Nc1ccc(-n2cncn2)cc1)c1ccc(C(=O)N2CCCC(c3ccccc3)C2)s1 (stereo not shown) [Compound 116] |
| ≥ 40 | O=C(Nc1ccc(-n2cncn2)cc1)c1ccc(C(=O)N2CCN(c3ccccc3)CC2)s1 [Compound 117] |
| ≥ 40 | NS(=O)(=O)c1ccc(NC(=O)c2ccc(C(=O)Nc3ccc(-n4cncn4)cc3)s2)cc1 [Compound 118] |
| ≥ 40 | COc1cccc(C2CCN(C(=O)c3ccc(C(=O)Nc4ccc(-n5cncn5)cc4)s3)C2)c1 (stereo not shown) [Compound 119] |
| ≥ 40 | COc1ccc(NC(=O)c2ccc(C(=O)Nc3ccc(N4CCOCC4)cc3)s2)c(C)c1 [Compound 120] |
| ≥ 40 | COc1ccc(NC(=O)c2ccc(C(=O)Nc3ccc(N4CCCCC4)cc3)s2)c(C)c1 [Compound 121] |
| ≥ 40 | COc1ccc(NC(=O)c2ccc(C(=O)Nc3ccc(N4CCNCC4)cc3)s2)c(C)c1 [Compound 122] |
| ≥ 40 | COc1ccc(NC(=O)c2ccc(C(=O)Nc3ccc(N4CCN(C)CC4)cc3)s2)c(C)c1 [Compound 123] |
| ≥ 40 | COc1ccc(NC(=O)c2ccc(C(=O)Nc3ccc(N(C)C)cc3)s2)c(C)c1 [Compound 124] |
| ≥ 40 | COc1ccc(NC(=O)c2ccc(C(=O)Nc3ccc(OCCN(C)C)cc3)s2)c(C)c1 [Compound 125] |
| ≥ 40 | COC(=O)c1ccc(NC(=O)c2ccc(C(=O)Nc3ccc(OC)cc3C)s2)cc1 [Compound 126] |
| ≥ 40 | COc1ccc(NC(=O)c2ccc(C(=O)Nc3ccc(-c4csnn4)cc3)s2)c(C)c1 [Compound 127] |

| IC50 [µM] | SMILES |
| --- | --- |
| ≥ 40 | COc1ccc(NC(=O)c2ccc(C(=O)Nc3ccc(-n4cccn4)cc3)s2)c(C)c1 [Compound 129] |
| ≥ 40 | COc1ccc(NC(=O)c2ccc(C(=O)Nc3ccc4c(c3)OCO4)s2)c(C)c1 [Compound 130] |
| ≥ 40 | COc1ccc(NC(=O)c2ccc(C(=O)Nc3ccc(-c4cnco4)cc3)s2)c(C)c1 [Compound 131] |
| ≥ 40 | COc1ccc(NC(=O)c2ccc(C(=O)Nc3ccc(CN)cc3)s2)c(C)c1 [Compound 132] |
| ≥ 40 | COc1ccc(NC(=O)c2ccc(C(=O)Nc3ccc(N4CCOCC4)nc3)s2)c(C)c1 [Compound 133] |
| ≥ 40 | COc1ccc(NC(=O)c2ccc(C(=O)Nc3cccc(-c4cnco4)c3)s2)c(C)c1 [Compound 134] |
| ≥ 40 | C[C@H](O)CNC(=O)c1ccc(C(=O)Nc2ccc(-n3cncn3)cc2)s1 [Compound 135] |
| ≥ 40 | O=C(Nc1ccc(-n2cncn2)cc1)c1ccc(C(=O)N[C@@H]2CCNC2)s1 [Compound 136] |
| ≥ 40 | CN1CCN(C(=O)c2ccc(C(=O)Nc3ccc(-n4cncn4)cc3)s2)CC1 [Compound 137] |
| ≥ 40 | O=C(NC[C@@H]1CCNC1)c1ccc(C(=O)Nc2ccc(-n3cncn3)cc2)s1 [Compound 138] |
| ≥ 40 | O=C(Nc1ccc(-n2cncn2)cc1)c1ccc(C(=O)NC2CCNCC2)s1 [Compound 139] |
| ≥ 40 | CN(C)CCCNC(=O)c1ccc(C(=O)Nc2ccc(-n3cncn3)cc2)s1 [Compound 140] |
| ≥ 40 | CN1CCC(NC(=O)c2ccc(C(=O)Nc3ccc(-n4cncn4)cc3)s2)CC1 [Compound 141] |
| ≥ 40 | Cc1cc(NC(=O)c2ccc(C(=O)Nc3ccc(-n4cncn4)cc3)s2)ccc1F [Compound 142] |
| ≥ 40 | Cn1cnc(CCNC(=O)c2ccc(C(=O)Nc3ccc(-n4cncn4)cc3)s2)c1 [Compound 143] |
| ≥ 40 | O=C(NCCN1CCCCC1)c1ccc(C(=O)Nc2ccc(-n3cncn3)cc2)s1 [Compound 144] |
| ≥ 40 | CN1CCCC1CCNC(=O)c1ccc(C(=O)Nc2ccc(-n3cncn3)cc2)s1 (stereo not shown) [Compound 145] |
| ≥ 40 | O=C(NCCN1CCNC1=O)c1ccc(C(=O)Nc2ccc(-n3cncn3)cc2)s1 [Compound 146] |
| ≥ 40 | O=C(NCCN1CCOCC1)c1ccc(C(=O)Nc2ccc(-n3cncn3)cc2)s1 [Compound 147] |
| ≥ 40 | O=C(Nc1ccc(-n2cncn2)cc1)c1ccc(C(=O)Nc2ccc3c(c2)OCO3)s1 [Compound 148] |
| ≥ 40 | COc1ccc(NC(=O)c2ccc(C(=O)Nc3ccc(-n4cncn4)cc3)s2)cc1F [Compound 149] |
| ≥ 40 | O=C(Nc1ccc(-n2cncn2)cc1)c1ccc(C(=O)N2CCCC2c2cccnc2)s1 (stereo not shown) [Compound 150] |
| ≥ 40 | COc1ccc(NC(=O)c2ccc(C(=O)Nc3ccc(-n4cncn4)cc3)s2)cc1OC [Compound 151] |
| ≥ 40 | O=C(Nc1ccc(-n2cncn2)cc1)c1ccc(C(=O)N2CCN(C3CCCC3)CC2)s1 [Compound 152] |
